# US6893650B1, “N2-phenylamidine derivatives” (Bayer Cropscience GmbH, priority 1999, dated 2005)
# Tested on: Leptosphaeria nodorum
# Assay: glume blotch, spray or stem-base drench of test plants, infection visually estimated; also: key: 1 is little or no control; 2 is moderate control; 3 is good to total control
# Format: in vivo
# Settings: concentration of 500 ppm (w/v) or less
row,Structure (SMILES),"score of 1 to 3 (control, degree of infection visually estimated)"
1,Cc1cc(Oc2cccc(C(F)(F)F)c2)c(C)cc1N=CN(C)C [Compound 1],2
2,CC(=Nc1cc(C)c(Oc2cccc(C(F)(F)F)c2)cc1C)N(C)C [Compound 2],2
3,CC(=Nc1cc(C)c(SCc2cccc(C(F)(F)F)c2)cc1C)N(C)C [Compound 5],2
4,Cc1cc(Oc2cccc(Cl)c2)c(C)cc1N=CN(C)C [Compound 7],2
5,Cc1cc(Oc2cccc(C(C)(C)C)c2)c(C)cc1N=CN(C)C [Compound 8],2
6,COc1cc(N=CN(C)C)c(Br)cc1Oc1cccc(C(F)(F)F)c1 [Compound 15],2
7,COc1ccccc1Oc1cc(C)c(N=CN(C)C)cc1C [Compound 27],2
8,Cc1cc(Oc2cccc(C#N)c2)c(C)cc1N=CN(C)C [Compound 29],2
9,Cc1cc(Oc2cccc(C(F)(F)F)c2)c(C)cc1N=CN1CCOCC1 [Compound 35],2
10,"CCN(C=Nc1cc(C)c(Oc2cccc(C(F)(F)F)c2)cc1C)CC [Compound 37, N,N-Diethyl-N′-[4-(3-trifluoromethylphenoxy)-2,5-xylyl]formamidine]",2
11,Cc1cc(Oc2cccc(C(F)(F)F)c2)c(C)cc1N=CN1CCCC1 [Compound 41],2
12,Cc1cc(Oc2cccc(C(F)(F)F)c2)c(C)cc1N=CN1CCCCC1 [Compound 43],2
13,"CCN(C)C=Nc1cc(C)c(Oc2cccc(C(F)(F)F)c2)cc1C [Compound 45, N-Ethyl-N-methyl-N′-[4-(3-trifluoromethylphenoxy)-2,5-xylyl]formamidine]",2
14,"Cc1cc(Oc2nc(-c3ccccc3)ns2)c(C)cc1N=CN(C)C [Compound 48, N,N-Dimethyl-N′-[4-(3-phenyl-1,2,4-thiadiazol-5-yloxy)-2,5-xylyl]formamidine]",2
15,COc1cccc(Oc2cc(C)c(N=CN(C)C)cc2C)c1 [Compound 56],2
16,CCNC=Nc1cc(C)c(Oc2cccc(C(F)(F)F)c2)cc1C [Compound 59],2
17,Cc1cc(Oc2ccc(C(C)(C)C)cc2)c(C)cc1N=CN(C)C [Compound 61],2
18,Cc1cc(Oc2nc(Br)ns2)c(C)cc1N=CN(C)C [Compound 72],2
19,CCN(C)C=Nc1cc(C)c(Oc2cccc(C(C)(C)C)c2)cc1C [Compound 100],2
20,CCC(C)c1ccc(Oc2cc(C)c(N=CN(C)C)cc2C)cc1 (stereo not drawn) [Compound 130],2
21,Cc1cc(OC(=O)c2sc3ccccc3c2Cl)c(C)cc1N=CN(C)C [Compound 160],2

row,Structure (SMILES),"score of 1 to 3 (control, degree of infection visually estimated)"
1,CCC(C)(C)c1ccc(Oc2cc(C)c(N=CN(C)C)cc2C)cc1 [Compound 170],2
2,CCc1ccc(Oc2cc(C)c(N=CN(C)C)cc2C)cc1 [Compound 181],2
3,Cc1cc(Oc2nc3cc(C(F)(F)F)ccc3s2)c(C)cc1N=CN(C)C [Compound 194],2
4,Cc1cc(Oc2nc(-c3ccccc3)ns2)c(C(C)C)cc1N=CN(C)C [Compound 208],2
5,Cc1cc(C(C#N)c2cccc(C(F)(F)F)c2)c(C)cc1N=CN(C)C (stereo not drawn) [Compound 214],2
6,C#CCOc1ccc(Oc2cc(C)c(N=CN(C)C)cc2C)cc1 [Compound 235],2
7,Cc1cc(Oc2nc(-c3ccccc3)ns2)c(C)cc1N=CN1CCCCC1 [Compound 246],2
8,Cc1cc(Oc2cccc(C(C)(C)C)c2)c(C)cc1N=CN(C)C(C)C [Compound 283],2
9,C=CCN(C)C=Nc1cc(C)c(Oc2cccc(C(C)(C)C)c2)cc1C [Compound 284],2
10,Cc1cc(OCc2ccc(OCC3CCCCC3)cc2)c(C)cc1N=CN(C)C [Compound 290],2
11,Cc1cc(Oc2ccc(OC(C)C)cc2)c(C)cc1N=CN(C)C [Compound 303],2
12,CCN(C)C=Nc1cc(C)c(Oc2cccc(Cl)c2)cc1C [Compound 310],2
13,CCN(C)C=Nc1cc(C)c(Oc2ccc(C(C)C)cc2)cc1C [Compound 311],2
14,CCN(C)C=Nc1cc(C)c(Oc2cccc(OC)c2)cc1C [Compound 312],2
15,CCN(C)C=Nc1cc(C)c(Oc2cccc(Oc3ccccc3)c2)cc1C [Compound 325],2
16,CCN(C)C=Nc1cc(C)c(Oc2ccc(C(C)(C)C)cc2)cc1C [Compound 326],2
17,Cc1cc(Oc2nc(-c3ccc(Cl)c(Cl)c3)cs2)c(C)cc1N=CN(C)C [Compound 351],2
18,CCN(C)C=Nc1cc(C)c(Oc2ccc(Cl)c(C(F)(F)F)c2)cc1C [Compound 364],2
19,Cc1cc(C)nc(Oc2cccc(Oc3cc(C)c(N=CN(C)C)cc3C)c2)n1 [Compound 369],2
20,Cc1cc(Oc2cccc(C3CCCC3)c2)c(C)cc1N=CN(C)C [Compound 378],2
21,COC(C)(C)c1cccc(Oc2cc(C)c(N=CN(C)C)cc2C)c1 [Compound 392],2
